The results in this text go back to ChEMBL document CHEMBL1759936, “Oxindole derivatives as inhibitors of TAK1 kinase” (Bioorg Med Chem Lett, 2011).

In brackets after ≈: the same amount, converted by molar mass.

The first data set deals with TAK1/TAB1 (Homo sapiens) (UniProt Q15750+O43318). As to the kind of experiment: Competitive inhibition of recombinant TAK1-TAB1 assessed as [33P]gamma-ATP incorporation into substrate histone H1 peptide at 10 uM by filter plate assay. It is filed as protein-complex assay.
As to `O=C1Nc2ccccc2/C1=C/C(=O)c1ccc(O)cc1O`, the inhibition was determined as 21%.

For `O=C1Nc2ccccc2/C1=N/N=C1\SCC(=O)N1c1ccc(OCc2ccccc2)cc1`, the inhibition came to 6%.

As to `O=C1Nc2ccccc2/C1=N/N=C1\SCC(=O)N1c1cccc(Oc2ccccc2)c1`, the inhibition came to 0%.

For the molecule `O=C1Nc2ccccc2C1c1ccnc(Nc2ccc(O)cc2)n1` (configuration not stated), the inhibition was determined as 39%.

Regarding `O=C1Nc2ccccc2/C1=C\c1c[nH]cn1`, the inhibition was 32%.

As for `O=C1Nc2cccc(Cl)c2/C1=N/N=C1\SCC(=O)N1c1ccc(O)cc1`, the inhibition was determined as 4%.

`O=C1Nc2ccccc2/C1=N/N=C1\N=NCN1c1ccc(O)cc1`: the inhibition was 0%.

As for `C/C(C(=O)c1ccccc1)=C1/C(=O)Nc2ccccc21`, the inhibition stood at 39%.

In the case of `Cc1c(Cl)ccc2c1NC(=O)/C2=N\N=C1/SCC(=O)N1c1ccc(O)cc1`, the inhibition was found to be 0%.

As to `O=C1Nc2ccccc2C1c1ccnc(Nc2ccccc2O)n1` (configuration not stated), the inhibition amounted to 52%.

For `Cc1ccc(N2C(=O)CS/C2=N\N=C2/C(=O)Nc3ccccc32)cc1`, the inhibition came to 0%.

For the next data set, the target named is TAK1/TAB1 (Homo sapiens, UniProt O43318). Description: Competitive inhibition of recombinant TAK1-TAB1 assessed as [33P]gamma-ATP incorporation into substrate histone H1 peptide by filter plate assay. The format is protein-complex assay.
Sequence of TAK1/TAB1 (Q15750 whole entry, one chain of several): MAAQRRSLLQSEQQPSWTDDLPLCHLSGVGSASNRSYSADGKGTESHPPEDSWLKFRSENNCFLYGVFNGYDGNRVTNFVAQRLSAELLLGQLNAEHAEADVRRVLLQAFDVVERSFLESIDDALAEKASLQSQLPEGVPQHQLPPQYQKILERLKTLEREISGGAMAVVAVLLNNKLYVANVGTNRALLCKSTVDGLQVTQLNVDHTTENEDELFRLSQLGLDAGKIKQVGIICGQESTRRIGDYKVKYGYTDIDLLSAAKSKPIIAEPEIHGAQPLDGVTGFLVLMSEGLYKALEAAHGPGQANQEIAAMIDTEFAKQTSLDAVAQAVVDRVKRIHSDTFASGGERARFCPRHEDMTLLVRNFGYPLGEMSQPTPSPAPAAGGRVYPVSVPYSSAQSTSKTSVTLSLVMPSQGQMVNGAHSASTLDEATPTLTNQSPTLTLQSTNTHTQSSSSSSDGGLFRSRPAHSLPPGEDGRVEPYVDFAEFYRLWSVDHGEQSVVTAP
As for `O=C1Nc2ccc(Br)cc2/C1=N/N=C1\SCC(=O)N1c1ccc(O)cc1`, the IC50 came out at 0.0089 µM.

Turning to `O=C1Nc2ccccc2/C1=C/C(=O)c1cccc(O)c1`, the 50% inhibitory concentration (IC50) was determined as 4.1 µM.

For `O=C1CS/C(=N\N=C2/C(=O)Nc3ccccc32)N1`, the IC50 was more than 5 µM.

Turning to `O=C1Nc2ccccc2/C1=N/N=C1\SCC(=O)N1c1ccccc1O`, the half-inhibitory concentration (IC50) came to 5.8 µM.

Take `O=C1Nc2ccc(F)cc2/C1=N/N=C1\SCC(=O)N1c1ccc(O)cc1`: the IC50 was determined as 0.099 µM.

Turning to `O=C1Nc2ccccc2/C1=N/N=C1\SCC(=O)N1CC1CCCN1` (configuration not stated), the IC50 is 30 µM.

Take `CCC1S/C(=N\N=C2/C(=O)Nc3ccc(Cl)cc32)N(c2ccc(O)cc2)C1=O` (configuration not stated): the concentration for half-maximal inhibition (IC50) is more than 5 µM.

Take `O=C1Nc2ccccc2/C1=C/C(=O)c1ccc(O)c(O)c1`: the half-maximal inhibitory concentration (IC50) came to 0.56 µM.

As to `O=C1Nc2ccccc2/C1=N/N=C1\SCC(=O)N1c1cccc(O)c1`, the half-maximal inhibitory concentration (IC50) was found to be 29 µM.

`O=C1Nc2ccc(OC(F)(F)F)cc2/C1=N/N=C1\SCC(=O)N1c1ccc(O)cc1`: the IC50 worked out at 3 µM.

Turning to `CN(C)c1ccc(N2C(=O)CS/C2=N\N=C2/C(=O)Nc3ccccc32)cc1`, the half-maximal inhibitory concentration (IC50) is more than 50 µM.

For the molecule `O=C1Nc2ccccc2/C1=C\c1ccc(O)c(O)c1`, the IC50 was more than 5 µM.

Consider `CC(C)C1S/C(=N\N=C2/C(=O)Nc3ccc(Cl)cc32)N(c2ccc(O)cc2)C1=O` (configuration not stated), for which the concentration for half-maximal inhibition (IC50) was more than 5 µM.

With `O=C1Nc2ccccc2/C1=C/C(=O)c1ccccc1`, the IC50 is more than 5 µM.

With `O=C1Nc2ccccc2/C1=N/N=C1\SCC(=O)N1Cc1ccncc1`, the IC50 came to 8.2 µM.

On to `O=C1Nc2ccccc2/C1=N/N=C1\SCC(=O)N1c1cnccc1O`, for which the half-maximal inhibitory concentration (IC50) amounted to 25 µM.

In the case of `COc1ccc(N2C(=O)CS/C2=N\N=C2/C(=O)Nc3ccccc32)cc1`, the half-inhibitory concentration (IC50) is more than 5 µM.

For `O=C1Nc2ccc(Cl)cc2/C1=N/N=C1\SCC(=O)N1c1ccc(O)cc1`, the IC50 came to 0.021 µM.

For the molecule `O=C1Nc2ccccc2/C1=N/N=C1\SCC(=O)N1c1ccc(O)cc1`, the IC50 is 0.046 µM.

Take `Cc1ccc2c(c1)/C(=N/N=C1\SCC(=O)N1c1ccc(O)cc1)C(=O)N2`: the IC50 came out at 0.098 µM.

For the molecule `O=C1Nc2ccccc2/C1=C\c1ccc(O)c(O)c1O`, the half-inhibitory concentration (IC50) was determined as 1.7 µM.

As for `CC1S/C(=N\N=C2/C(=O)Nc3ccc(Cl)cc32)N(c2ccc(O)cc2)C1=O` (configuration not stated), the 50% inhibitory concentration (IC50) came out at 0.63 µM.

For another data set, the system named is HeLa. As to the kind of experiment: Cytotoxicity against human HeLa cells. It is filed as cell-based.
Molecule `O=C1Nc2ccccc2/C1=N/N=C1\SCC(=O)N1c1ccc(O)cc1` had a 50% inhibitory concentration (IC50) of more than 100 µM.

The target in a further data set is T1, Mitogen-activated protein kinase kinase kinase 7 (Homo sapiens) (UniProt O43318).
T1 sequence (whole entry): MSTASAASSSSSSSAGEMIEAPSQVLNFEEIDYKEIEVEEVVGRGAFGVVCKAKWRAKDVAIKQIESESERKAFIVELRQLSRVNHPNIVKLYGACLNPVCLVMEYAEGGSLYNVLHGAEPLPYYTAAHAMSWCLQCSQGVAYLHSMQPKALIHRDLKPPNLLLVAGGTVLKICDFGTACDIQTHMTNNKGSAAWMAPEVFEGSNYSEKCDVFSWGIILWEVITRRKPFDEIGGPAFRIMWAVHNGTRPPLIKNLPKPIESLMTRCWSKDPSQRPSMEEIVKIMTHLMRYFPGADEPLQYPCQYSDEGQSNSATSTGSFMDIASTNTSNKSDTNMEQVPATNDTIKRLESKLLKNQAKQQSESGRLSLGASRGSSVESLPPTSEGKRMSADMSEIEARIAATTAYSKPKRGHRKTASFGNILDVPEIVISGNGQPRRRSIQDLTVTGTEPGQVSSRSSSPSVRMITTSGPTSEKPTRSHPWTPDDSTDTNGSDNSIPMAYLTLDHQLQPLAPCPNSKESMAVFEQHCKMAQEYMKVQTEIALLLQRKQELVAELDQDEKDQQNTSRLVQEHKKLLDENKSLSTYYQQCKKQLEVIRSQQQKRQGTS
As to the kind of experiment: Competitive inhibition of TAK1 overexpressed in Hela cells assessed as TAK1 autophosphorylation on Thr187 by ELISA. (An ELISA detects its analyte on a solid surface through an enzyme-linked reagent.)
As to `O=C1Nc2ccccc2/C1=N/N=C1\SCC(=O)N1c1ccc(O)cc1`, the half-inhibitory concentration (IC50) came to 11 µM.

System in a further data set: not listed separately
As to the kind of experiment: Solubility in phosphate buffer at pH 7.4. It is filed as physicochemical.
As for `O=C1Nc2ccc(Br)cc2/C1=N/N=C1\SCC(=O)N1c1ccc(O)cc1`, the solubility was determined as 3.1 µM (≈ 1.34 µg/mL).

The molecule `O=C1Nc2ccccc2/C1=N/N=C1\SCC(=O)N1c1ccc(O)cc1` had a solubility of 65 µM (≈ 22.9 µg/mL).

The inhibition is the change of the read-out against control, counted positive when it falls. As a reminder, the IC50 is the concentration that gives 50% inhibition. As usually defined, the solubility is how much of the substance goes into solution per volume. The low end stands for little dissolved substance, the high end for much dissolved substance.
